Measurements published in patent publication US20250000874A1, “BACTERIAL METABOLITES AND THEIR USE IN REDUCING INFLAMMATION” (LOYOLA UNIVERSITY OF CHICAGO, priority 2023, published 2025).
Entries after “also recorded” stand apart in the source; their conditions may differ.

Legend:
[1] = tested on: Human corneal epithelial cells; assay: NC on IL-6 release in HCECs; assay type: cell-based; conditions: 50 μM NC 18 hours, 6-8 hours
Description: FIG. 30. NC on IL-6 Release in HCECs. Human corneal epithelial cells were plated at a uniform density of 0.2×10^6 cells/mL in 24 well plates. These cells were allowed to adhere for 6-8 hours. They were then treated 18 hours with 50tM of metabolite NC before being stimulated with 1 tg/mL of PA-Flagellin or 50 tg/mL Poly I:C. Supernatant was collected between 6-8 hours after addition of TLR agonist and centrifuged at 1250 rpms for 5 minutes to remove any debris. IL-6 in the supernatant was then quantified using a sandwich ELISA for human IL-6 with a standard of known IL-6 concentration.
Human corneal epithelial cells (HCECs) are a cell type used for models of ocular inflammation. To determine the specificity of HCEC TLR signaling, HCECs were stimulated with various TLR agonists. In this experimental model, HCECs only release IL-6 in response to TLR3 and TLR5 agonists (Poly I:C and Fla, respectively) in vitro (FIG. 29). Therefore, only Poly I:C and Fla were used for HCEC stimulation in subsequent experiments.
To determine if NC can mitigate TLR-related inflammation, HCECs were plated at a uniform density, incubated with 50 μM metabolite NC for 18 hours, and stimulated with flagellin or Poly I:C. After 6-8 hours, supernatant was collected and IL-6 was quantified. […] FIG. 30.

[2] = tested on: Bone Marrow Derived Macrophage (BMDM); assay: NC on TNFα production by BMDMs in response to TLR agonists (Example 7); assay type: cell-based, mouse
Description: FIG. 32. NC Reduces TNFα Response to Toll 3 Agonist. Macrophages were cultured at a uniform density and allowed to adhere (in the case of BMDMs) or differentiate with PMA (in the case of THP-1s). macrophages were then incubated overnight in NC at a concentration of 50 uM at 37° C. The following day, the BMDMs were stimulated with P(I:C) at 50 ug/mL, 100 ug/mL, or 200 ug/mL for four hours and the THP-1s were stimulated at 200 […]. Supernatants were collected and TNFα concentrations were determined via ELISA.
FIG. 33. TNFα production from Bone Marrow Derived Macrophage (BMDM) stimulation. BMDMs were cultured in DMEM supplemented with Macrophage Colony Stimulating Factor (M-CSF) at 10 ng/ml. The macrophages were then incubated overnight in NC at a concentration of 50 uM at 37° C. The following day they were stimulated with LPS at 1 ng/ml, 10 ng/ml for four hours. Supernatants were collected and TNFα concentrations were determined via ELISA.
Bone marrow derived macrophages were collected from adult mice (6-8 weeks old). Femurs were obtained and cut with scissors. The connecting muscles were removed and the bones were flushed with PBS. PBS was collected and cells were counted and adjusted to the desired concentrations. […] After 7 days the cells were ready for use. […]
Once ready, macrophages were then incubated with NC at a concentration of 50 uM overnight. […] Samples were treated for 4 hours and then Supernatant was then collected and the concentration of TNFα was then determined via the commercially available ELISA MAX Deluxe kit (Biolegend), with measurements reported in pg/mL.
To investigate the effects NC, macrophages were stimulated in vitro with various TLR agonists, and the production of cytokines was measured via ELISA. […] After 4 hours, supernatant was collected and the concentration of TNFα was determined via ELISA.
Further investigation of NC's impact on TLR signaling involved treating BMDMs with the TLR 4 agonist LPS. […] After 4 hours supernatant was collected and concentration of TNFα was measured via ELISA. […]

macrophages = assay: NC on other TLR pathways, macrophages (Example 7); assay type: cell-based; conditions: PAM3CSK4, Flagellin, Imiquimod, ODN2006; various concentrations
Description: Once ready, macrophages were then incubated with NC at a concentration of 50 uM overnight. The following day they were treated with P(I:C) at 50 ug/mL, 100 ug/mL, or 200 ug/mL, with LPS at 1 ng/ml or 10 ng/ml, or FSL at a concentration of 20 ng/ml or 50 ng/mL. Samples were treated for 4 hours and then Supernatant was then collected and the concentration of TNFα was then determined via the commercially available ELISA MAX Deluxe kit (Biolegend), with measurements reported in pg/mL.
Further investigation of NC's impact on TLR signaling involved treating BMDMs with the TLR 4 agonist LPS. Following overnight treatment with NC cells were treated with LPS at a concentration of 1 ng/ml and 10 ng/ml. After 4 hours supernatant was collected and concentration of TNFα was measured via ELISA. […] Additionally, we explored NCs effects on other TLR agonists. […] We investigated NCs effects on various other TLR pathways including: ½ (PAM3CSK4), TLR 5 (Flagellin), TLR 7 (Imiquimod), and TLR 9 (ODN2006).

[3] = tested on: IC-21 murine peritoneal macrophages; assay: Toxicity assay, Cell Counting Kit-8 viability; assay type: cell-based, mouse; conditions: 37° C. two days, CCK-8
Description: FIG. 10. […] IC-21 murine peritoneal macrophages were seeded at a density of 2.0×10^4 per well in a 96-well plate. Differing concentrations of compound JE ranging from […] were diluted in DMSO and added to the appropriate wells. Cells were incubated at 37° C. for 48 hours. After the incubation period, Cell Counting Kit-8 (Sigma-Aldrich) was used for quantification of viable cells. CCK-8 solution was added to each well and the plate was incubated at 37° C. for two hours. Levels of water-soluble tetrazolium salt reduced to formazan were then measured at a wavelength of 450 nm. Cell viability was found as a percentage by dividing each absorbance value by the negative control.
To test if JE has any toxicity, we first incubated murine macrophages with JE at different concentrations at 37° C. for two days, and determined viability of the cells. […] Further we injected the JE at 50 μM twice daily via I.P. for 3 or 5 days and then determined ALT levels in sera and examined the morphology in key organs, liver, kidney, spleen, intestines etc.

In the case of `CCCCCCCCCCCCCCCC(=O)N[C@@H](C(=O)O)[C@H](C)O` [NC, N-Palmitoyl-D-Threonine], the “release of IL-6 in response to Poly I:C” value ([1]; Poly I:C) is reported as “does not significantly reduce; also recorded: modestly reduced”, the “release of IL-6 in response to Fla” value ([1]; flagellin) is reported as “does not significantly reduce” and the “production and secretion of TNFα” value ([2]; NC 50 μM overnight, Poly (I:C) 50, 100, 200 μg/ml, 4 hours) is reported as “reduced”. The “production of TNFα” value ([2]; NC alone, 50 μM overnight) was “not found to increase”, the “cytokine (TNFα) production in response to TLR 4 agonist LPS” value ([2]; NC overnight, LPS 1 ng/ml and 10 ng/ml, 4 hours) was “able to reduce” and the “cytokine production, other TLR pathways” value (macrophages) was “did not exhibit any significant inhibitory effects”.

With `CC(=O)O[C@@H]1CC[C@H]2[C@H]3CC[C@H]4CC(F)(F)CC[C@]4(C)[C@H]3CC[C@]12C` [JE, 3,3-Difluoro-5-alpha-androstan-17-beta-yl acetate] the “viability of the cells” value ([3]; JE 50 μM or below) was “high viability; also recorded: did not show significant reduction” and the “viability of the cells” value ([3]; JE >100 μM) was “reduced the viability”.
